Here are results for 21 compounds from ChEMBL document CHEMBL3044751, “Structure-based design, synthesis, and molecular modeling studies of 1-(benzo[d]thiazol-2-yl)-3-(substituted aryl)urea derivatives as novel anti-Parkinsonian agents” (2012).

The structures appear in SMILES notation.

Holding throughout (type): functional
What all share (settings): route intraperitoneal

Test [1] relates to Mus musculus. Put plainly: Antiparkinsonian activity against haloperidol-induced catalepsy in Mus musculus Swiss albino (mouse) assessed as decrease in mean descent time at 100 mg/kg, ip administered 30 min prior to haloperidol injection measured after 120 min.
In test [2] the test system is Mus musculus. Put plainly: Antiparkinsonian activity against haloperidol-induced catalepsy in Mus musculus Swiss albino (mouse) assessed as decrease in mean descent time at 100 mg/kg, ip administered 30 min prior to haloperidol injection measured after 150 min.
The subject of test [3] is Mus musculus. The experiment in a line: Antiparkinsonian activity against haloperidol-induced catalepsy in Mus musculus Swiss albino (mouse) assessed as decrease in mean descent time at 100 mg/kg, ip administered 30 min prior to haloperidol injection measured after 30 min.
Test [4] concerns Mus musculus. Put plainly: Antiparkinsonian activity against haloperidol-induced catalepsy in Mus musculus Swiss albino (mouse) assessed reduction in catalepsy at 100 mg/kg, ip administered 30 min prior to haloperidol injection measured after 30 to 180 min. Set-up: scale not given: the % may be the effect or the level left.
The test system of test [5] is Mus musculus. Put plainly: Antiparkinsonian activity against haloperidol-induced catalepsy in Mus musculus Swiss albino (mouse) assessed as decrease in mean descent time at 100 mg/kg, ip administered 30 min prior to haloperidol injection measured after 180 min.
Test [6] relates to Mus musculus. Put plainly: Antiparkinsonian activity against haloperidol-induced catalepsy in Mus musculus Swiss albino (mouse) assessed as decrease in mean descent time at 100 mg/kg, ip administered 30 min prior to haloperidol injection measured after 90 min.
The test system of test [7] is Mus musculus. The experiment in a line: Antiparkinsonian activity against haloperidol-induced catalepsy in Mus musculus Swiss albino (mouse) assessed as decrease in mean descent time at 100 mg/kg, ip administered 30 min prior to haloperidol injection measured after 60 min.
The test system of test [8] is Mus musculus. The experiment in a line: Antiparkinsonian activity against haloperidol-induced oxidative stress in Mus musculus Swiss albino (mouse) assessed reduction in superoxide dismutase activity in brain by measuring malondialdehyde level at 100 mg/kg, ip administered 30 min prior to haloperidol injection by NBT reduction assay.
Test [9] relates to Mus musculus. Put plainly: Antiparkinsonian activity against haloperidol-induced oxidative stress in Mus musculus Swiss albino (mouse) assessed reduction in glutathione peroxidase activity in brain by measuring malondialdehyde level at 100 mg/kg, ip administered 30 min prior to haloperidol injection.
Test [10] deals with Mus musculus. Put plainly: Antiparkinsonian activity against haloperidol-induced oxidative stress in Mus musculus Swiss albino (mouse) assessed reduction in glutathione level in brain by measuring malondialdehyde level at 100 mg/kg, ip administered 30 min prior to haloperidol injection.
The test system of test [11] is Mus musculus. The experiment in a line: Antiparkinsonian activity against haloperidol-induced oxidative stress in Mus musculus Swiss albino (mouse) assessed reduction in lipid peroxidation in brain by measuring malondialdehyde level at 100 mg/kg, ip administered 30 min prior to haloperidol injection by TBARS assay.

`COc1ccc(NC(=O)Nc2nc3ccccc3s2)cc1`: the Time in the test with Mus musculus [1] was 160 s; in the test with Mus musculus [2], 180 s; in the test on Mus musculus [3], 43 s; with Mus musculus [5], 181 s; in the test with Mus musculus [6] it was 117 s; in the test on Mus musculus [7], 69 s. Further, the Activity in the test on Mus musculus [4] worked out at 53.1%.
Consider `O=C(Nc1nc2ccccc2s1)Nc1ccccc1F`, for which the Time with Mus musculus [1] worked out at 207 s; in the test on Mus musculus [2], 223 s; in the test on Mus musculus [3], 81 s; with Mus musculus [5], 241 s; in the test on Mus musculus [6], 193 s; in the test with Mus musculus [7], 145 s. The Activity with Mus musculus [4] was 30.8%.
In the case of `O=C(Nc1ccc(F)cc1)Nc1nc2ccccc2s1`, the Time in the test on Mus musculus [1] was determined as 219 s; in the test with Mus musculus [2], 234 s; in the test with Mus musculus [3], 70 s; in the test with Mus musculus [5], 263 s; in the test on Mus musculus [6] it was 188 s; in the test on Mus musculus [7], 131 s. Besides, the Activity with Mus musculus [4] is on record as 29.8%.
As to `O=C(Nc1nc2ccccc2s1)Nc1ccccc1Cl`, the Time worked out at 205 s in the test on Mus musculus [1]; 212 s with Mus musculus [2]; 57 s in the test with Mus musculus [3]; 289 s with Mus musculus [5]; 134 s in the test with Mus musculus [6]; 98 s in the test on Mus musculus [7]. Further, the Activity with Mus musculus [4] was found to be 37.1%.
Consider `O=C(Nc1cccc(Cl)c1)Nc1nc2ccccc2s1`, for which the Time in the test with Mus musculus [1] stood at 182 s; in the test with Mus musculus [2] it was 191 s; in the test with Mus musculus [3] it was 101 s; in the test on Mus musculus [5] it was 230 s; in the test with Mus musculus [6], 169 s; in the test on Mus musculus [7], 144 s. Besides, in the test with Mus musculus [4], the Activity is reported as 35.6%.
Take `O=C(Nc1ccc(Cl)cc1)Nc1nc2ccccc2s1`: the Time with Mus musculus [1] is 190 s; with Mus musculus [2], 207 s; with Mus musculus [3], 78 s; in the test with Mus musculus [5], 220 s; in the test with Mus musculus [6], 166 s; in the test on Mus musculus [7], 129 s. Further, in the test with Mus musculus [4], the Activity stood at 37.4%.
As to `O=C(Nc1nc2ccccc2s1)Nc1cc(C(F)(F)F)ccc1Cl`, the Time worked out at 118 s in the test on Mus musculus [1]; 129 s with Mus musculus [2]; 77 s in the test with Mus musculus [3]; 173 s in the test with Mus musculus [5]; 114 s in the test on Mus musculus [6]; 89 s in the test on Mus musculus [7]. Moreover, in the test with Mus musculus [4], the Activity was 56.3%.
Turning to `O=C(Nc1nc2ccccc2s1)Nc1ccccc1[N+](=O)[O-]`, the Time in the test on Mus musculus [1] is listed as 85 s; with Mus musculus [2] it was 99 s; in the test on Mus musculus [3], 23 s; in the test on Mus musculus [5], 130 s; in the test with Mus musculus [6], 77 s; with Mus musculus [7], 56 s. Moreover, in the test with Mus musculus [4], the Activity worked out at 71.4%.
Take `O=C(Nc1ccc([N+](=O)[O-])cc1)Nc1nc2ccccc2s1`: the Time in the test with Mus musculus [1] is reported as 199 s; in the test with Mus musculus [2], 234 s; in the test on Mus musculus [3], 90 s; in the test on Mus musculus [5] it was 253 s; in the test with Mus musculus [6], 181 s; with Mus musculus [7], 138 s. In addition, the Activity in the test on Mus musculus [4] turned out to be 30.5%.
On to `Cc1ccccc1NC(=O)Nc1nc2ccccc2s1`, for which the Time with Mus musculus [1] was determined as 166 s; with Mus musculus [2] it was 180 s; with Mus musculus [3], 66 s; in the test with Mus musculus [5], 198 s; in the test on Mus musculus [6], 134 s; with Mus musculus [7], 101 s. The Activity in the test on Mus musculus [4] is on record as 46.9%.
Turning to `Cc1ccc(NC(=O)Nc2nc3ccccc3s2)cc1`, the Time was 160 s in the test with Mus musculus [1]; 171 s in the test on Mus musculus [2]; 72 s with Mus musculus [3]; 185 s in the test on Mus musculus [5]; 155 s in the test on Mus musculus [6]; 97 s in the test on Mus musculus [7]. Further, the Activity in the test with Mus musculus [4] came out at 47.2%.
As for `COc1ccccc1NC(=O)Nc1nc2ccccc2s1`, the Time came out at 72 s in the test with Mus musculus [1]; 95 s with Mus musculus [2]; 32 s in the test with Mus musculus [3]; 103 s in the test with Mus musculus [5]; 65 s with Mus musculus [6]; 34 s in the test with Mus musculus [7]. The Activity in the test on Mus musculus [8] is 2.12 U/mg; with Mus musculus [9], 1.65 U/g; in the test with Mus musculus [10], 12.34 µg/g; in the test on Mus musculus [4], 75.9%; in the test on Mus musculus [11], 2.99 nmol/mg.
For `COc1ccc(NC(=O)Nc2nc3ccccc3s2)c(OC)c1`, the Time in the test on Mus musculus [1] stood at 94 s; with Mus musculus [2], 107 s; in the test with Mus musculus [3], 26 s; in the test with Mus musculus [5], 149 s; with Mus musculus [6], 78 s; in the test with Mus musculus [7], 41 s. The compound also displayed an Activity with Mus musculus [4] of 69.8%.
As to `COc1cc(NC(=O)Nc2nc3ccccc3s2)cc(OC)c1OC`, the Time in the test with Mus musculus [1] was determined as 89 s; in the test on Mus musculus [2], 115 s; in the test with Mus musculus [3], 37 s; in the test on Mus musculus [5], 122 s; in the test on Mus musculus [6], 81 s; in the test on Mus musculus [7], 46 s. The same compound came in with an Activity in the test with Mus musculus [4] of 70.1%.
For the compound `O=C(Nc1ccc(Oc2ccccc2)cc1)Nc1nc2ccccc2s1`, the Time worked out at 161 s with Mus musculus [1]; 189 s in the test on Mus musculus [2]; 51 s in the test on Mus musculus [3]; 196 s in the test with Mus musculus [5]; 126 s in the test on Mus musculus [6]; 67 s in the test with Mus musculus [7]. This compound also yielded an Activity in the test on Mus musculus [4] of 50.5%.
As for `O=C(NCc1ccco1)Nc1nc2ccccc2s1`, the Time was 81 s in the test with Mus musculus [1]; 85 s with Mus musculus [2]; 18 s with Mus musculus [3]; 95 s in the test with Mus musculus [5]; 72 s with Mus musculus [6]; 29 s with Mus musculus [7]. For the same compound, the Activity in the test with Mus musculus [8] was 1.87 U/mg; in the test on Mus musculus [9] it was 1.36 U/g; in the test with Mus musculus [10], 16.53 µg/g; in the test with Mus musculus [4] it was 77.3%; in the test on Mus musculus [11], 3.12 nmol/mg.
For the compound `O=C(Nc1nc2ccccc2s1)Nc1ccccc1Br`, the Time with Mus musculus [1] was 173 s; in the test on Mus musculus [2], 201 s; in the test with Mus musculus [3] it was 118 s; with Mus musculus [5], 224 s; with Mus musculus [6] it was 156 s; in the test with Mus musculus [7], 128 s. This compound gave an Activity with Mus musculus [4] of 36.7%.
Turning to `O=C(Nc1ccc(Br)cc1)Nc1nc2ccccc2s1`, the Time in the test with Mus musculus [1] was 196 s; in the test with Mus musculus [2], 211 s; with Mus musculus [3], 87 s; in the test on Mus musculus [5], 216 s; in the test with Mus musculus [6], 178 s; in the test on Mus musculus [7], 132 s. In the test with Mus musculus [4], this compound displayed an Activity of 35.4%.
For `O=C(CCCN1CCC(O)(c2ccc(Cl)cc2)CC1)c1ccc(F)cc1` [HALOPERIDOL], the Time worked out at 300 s with Mus musculus [1]; 300 s in the test on Mus musculus [2]; 155 s in the test on Mus musculus [3]; 300 s in the test on Mus musculus [5]; 264 s with Mus musculus [6]; 242 s in the test on Mus musculus [7]. Also, the Activity with Mus musculus [8] was found to be 0.85 U/mg; in the test with Mus musculus [9], 0.68 U/g; with Mus musculus [10] it was 5.57 µg/g; in the test on Mus musculus [11], 4.92 nmol/mg.
As to `N[C@@H](Cc1ccc(O)c(O)c1)C(=O)O` [LEVODOPA], the Time with Mus musculus [1] was 119 s; in the test on Mus musculus [2] it was 122 s; in the test on Mus musculus [3], 32 s; in the test with Mus musculus [5], 137 s; with Mus musculus [6], 99 s; with Mus musculus [7], 49 s. In addition, the Activity in the test with Mus musculus [4] was found to be 65.6%.
Take `Nc1nc2c(cnn2CCc2ccccc2)c2nc(-c3ccco3)nn12` [SCH-58261]: the Time in the test on Mus musculus [1] was 45 s; in the test with Mus musculus [2] it was 58 s; in the test on Mus musculus [3] it was 11 s; with Mus musculus [5], 72 s; with Mus musculus [6], 36 s; with Mus musculus [7], 19 s. Also, the Activity in the test with Mus musculus [4] was 86.4%.
